Measured values reported in patent US20250042866A1, “CRYSTAL FORM OF BLARCAMESINE HYDROCHLORIDE, METHOD FOR PREPARING SAME, AND USE THEROF” (CRYSTAL PHARMACEUTICAL (SUZHOU) CO., LTD., priority 2022, published 2025).
“Also recorded” adds a separate entry of the source.

What was measured:
Type in all cases: physicochemical
[1] = Hygroscopicity by dynamic vapor sorption (DVS); settings: 25° C., cycle 0% RH-95% RH-0% RH, about 10 mg
Description: DVS data in the present disclosure were measured via an SMS (Surface Measurement Systems Ltd.) intrinsic DVS instrument. The instrument control software is DVS-Intrinsic control software. Typical Parameters for DVS test are as follows: • Temperature: 25° C. • Gas and flow rate: N2, 200 mL/min • RH range: 0% RH to 95% RH
The mass change at each relative humidity were recorded in a cycle of 0% RH-95% RH-0% RH.

[2] = Compressibility: tensile strength of compressed tablets; settings: 80 mg, Φ6 mm round tooling, 3 kN, after 24 hours at room temperature; T=2H/πDL
Description: The samples were pressed by the ENERPAC single punch manual tablet press. […] The elastic recovery was completed after storage at room temperature for 24 hours, then the diameter (D) and thickness (L) of the tablet was measured by a caliper, and the hardness (H) was tested with a tablet hardness tester. Tensile strength of the powder was calculated with the following formula: T=2H/πDL. Under a certain force, the greater the tensile strength, the better the compressibility.

[3] = Solubility in organic solvents, step-wise solvent addition; settings: organic solvent or mixture, thermodynamic from solid; Ethyl acetate; room temperature; as mass of Compound I
Description: (§1) The weight of solid (m), the undissolved volume (v1) and the dissolved volume (v2) were recorded respectively.
as §1

[4] = Flowability (compressibility index / Carr index); settings: criteria of ICH Q4B Annex 13, by compressibility index
Description: The bulk density ρ0 was calculated with the formula “bulk density ρ0=powder mass/volume before tapped”. […] The tapped density pf was calculated with the formula “tapped density ρf=powder mass/volume after tapped”. The degree of compression (c), also known as Compressibility index or Carr index, was calculated based on the measured bulk density and tap density of the sample with the formula c=(ρf-ρ0)/ρf*100%.
The bulk density ρ0 was calculated with the formula “bulk density ρ0=powder mass/volume before tapped”. […] The tapped density pf was calculated with the formula “tapped density ρf=powder mass/volume after tapped”. The degree of compression (c), also known as Compressibility index or Carr index, was calculated based on the measured bulk density and tap density of the sample with the formula c=(pf-ρ0)/ρf*100%.

[5] = Light stability (HPLC purity and XRPD form); settings: for Initial purity: before light exposure; for Purity / Solid form: light 8 k Lux, UV 1.5 w/m^2, 2 weeks; for Purity: HPLC; for Solid form: XRPD
Excerpt: An appropriate amount of Form CSIV of the present disclosure was placed in a light stability chamber with the following setting values: light: 8 k Lux, UV: 1.5 w/m^2.

[6] = Storage stability of drug substance (HPLC purity and XRPD form); settings: for chemical purity during storage: 40° C./75% RH and 60° C./75% RH
Description: Chemical purity and crystalline form were tested by HPLC and XRPD respectively.
Open: the sample was placed into a glass vial, and the vial was covered by aluminum foil with holes.
Sealed with desiccants: the sample was placed into a glass vial, and the vial was covered by aluminum foil with holes, then the vial was sealed into an aluminum foil bag with 1 g of silica gel desiccant.
An appropriate amount of Form CSIV of the present disclosure were stored under different conditions of 25° C./60% RH, 40° C./75% RH and 60° C./75% RH. Chemical purity and crystalline form were test by HPLC and XRPD respectively. […] Form CSIV is stable after storage under 40° C./75% RH condition for at least 6 months, indicating Form CSIV has good stability under accelerated condition. Form CSIV is stable after storage under 60° C./75% RH condition for at least 2 weeks, indicating Form CSIV has good stability under stress condition.

[7] = Stability upon mechanical force: tableting under different pressures; settings: XRPD
Description: An appropriate amount of Form CSII was compressed into tablets under different pressures with suitable tableting die. Crystalline form before and after tableting were tested by XRPD.
An appropriate amount of Form CSIII was compressed into tablets under different pressures with suitable tableting die. Crystalline form before and after tableting were tested by XRPD.

[8] = Stability upon mechanical force: ball milling; settings: XRPD
[9] = Crystalline form stability in the formulation process; settings: dry granulation simulation 5 ± 1 kN, blending, capsule filling; XRPD
[10] = 25° C./60% RH, long-term condition
[11] = 25° C./60% RH, sealed with desiccants, 9 months
[12] = 40° C./75% RH, accelerated condition
[13] = 60° C./75% RH, stress condition
[14] = 25° C./60% RH, sealed with desiccants, 6 months
[15] = 40° C./75% RH, sealed with desiccants, 6 months
[16] = 60° C./75% RH, sealed with desiccants, 2 weeks
[17] = 5 minutes at a vibration speed of 500 rpm

Mass increase under 70% RH [1] [%]	Tensile strength [2] [MPa]	Flowability [4]	Initial purity [5] [%]	Purity [5] [%]	time for which the drug substance is stable (crystalline state unchanged) [6, 10]	Purity ([6]; 25° C./60% RH, open, 9 months) [%]	Purity [6, 11] [%]	chemical purity during storage [6]	time for which the drug substance is stable (crystalline state unchanged) [6, 12]	time for which the drug substance is stable (crystalline state unchanged) [6, 13]	Purity ([6]; Initial) [%]	Crystalline form after tableting ([7]; Pressure 5 kN)	Crystalline form after tableting ([7]; Pressure 10 kN)	Crystalline form after tableting ([7]; Pressure 20 kN)	Purity [6, 15] [%]	form change after ball milling [8, 17]	SMILES	Solid form [5]	crystalline form before and after the formulation process [9]	other results
0.54	0.552	Poor	–	–	–	–	–	–	–	–	–	–	–	–	–	–	CN(C)CC1CCOC1(c1ccccc1)c1ccccc1 (centres unmarked) [Form I in the prior art, tetrahydro-N,N-dimethyl-2,2-diphenyl-3-furanmethanamine, reference compound]	–	–	solubility [3]: < 1500 µg/mL
–	0.707	Fair (16-20)	99.83	99.76	at least 9 months	99.91	99.92	above 99%	at least 3 months	at least 2 month	99.86	Form CSIII	Form CSIII	Form CSIII	–	–	CN(C)CC1CCOC1(c1ccccc1)c1ccccc1.Cl.O=C(O)CC(O)(CC(=O)O)C(=O)O (centres unmarked) [Form CSIII]	remains unchanged; also recorded: Form CSIII	stable before and after the formulation process	Purity ([6]; 40° C./75% RH, sealed with desiccants, 3 months): 99.91%; Purity ([6]; 60° C./75% RH, sealed with desiccants, 2 months): 99.86%; form change after ball milling ([8]; vibration speed of 300 rpm): no form change
–	0.705	Excellent (≤10)	99.92	99.92	at least 6 months	–	–	above 99.9%	at least 6 months	at least 2 weeks	99.95	–	–	–	99.93	no form change	CN(C)CC1CCOC1(c1ccccc1)c1ccccc1.CN(C)CC1CCOC1(c1ccccc1)c1ccccc1.Cl.Cl.O=C(O)CC(O)C(=O)O (racemic) [Form CSIV]	remains unchanged; also recorded: Form CSIV	–	Purity [6, 14]: 99.92%; Solid form [6, 14]: Form CSIV; Solid form [6, 15]: Form CSIV; Purity [6, 16]: 99.98%; Solid form [6, 16]: Form CSIV; Solid form ([6]; Initial): Form CSIV
0.24	0.705	–	99.97	99.97	at least 9 months	99.90	99.95	above 99.9%	at least 6 months	–	99.96	Form CSII	Form CSII	Form CSII	99.90	no form change	CN(C)CC1CCOC1(c1ccccc1)c1ccccc1.CN(C)CC1CCOC1(c1ccccc1)c1ccccc1.Cl.Cl.O=C(O)C(O)C(O)C(=O)O (centres unmarked) [Form CSII]	remains unchanged; also recorded: Form CSII	stable before and after the formulation process	Purity ([6]; 60° C./75% RH, sealed with desiccants, 1 month): 99.94%
